This is an account of results in patent US5488049A, “Method of treating learning and memory disorders using benzothiadiazide derivatives as nootropic agents” (FIDIA - Georgetown Institute for the Neuro-Sciences, priority 1993, dated 1996).

Common to all, as to assay type: cell-based, rat
Assay [1] relates to EPSCs elicited in CAl pyramidal neurons. As to the kind of experiment: Excitatory postsynaptic currents (EPSCs) in CAl pyramidal neurons in hippocampal slices on stimulation of Schaffer collateral afferents. On the procedure:
(§1) Young rats (12-16 days old) were decapitated and the brains quickly removed and placed in ice-cold Ringer solution. Thin slices of hippocampus (250 μm) were then cut with a vibratome slicer (Lancer, St. Louis, Mo.) and kept in Ringer solution at 37° C. until use. The experiments were carried out at room temperature with the slice totally submerged in a 1 ml volume recording chamber and under continuous perfusion with Ringer solution at a rate of 6 ml/min using an upright Hoffman modulation contrast microscope (Carl Zeiss, Germany) equipped with a 40×water immersion objective.
(§2) Ionic currents in whole-cell configuration and outside-out excised membrane patches were monitored using the patch clamp technique (15).
Traces were filtered at 3 KHz (-3 dB, 8-pole, lowpass Bessel filter, Frequency Devices), and stored in an LSI 11/73 computer (INDEC System, Sunnyvale, Calif.) after digitization (10 KHz) with a Data Translation analog to digital converter. Decay time constants of EPSC and glutamate-activated currents were determined from exponential fitting with the 11/73 system by using an entirely automated least-squares procedures (see Vicini and Schuetze, 1985, for further details). This method uses a Simplex algorithm (Caceci and Cacheris, 1984) to fit the data to either a single or double exponential equation of the form I(t)=If exp(-t/tauf)+Is exp(-t/taus), where If and Is are the amplitudes of the sIPSC fast and slow components, and tauf and taus are their respective decay time constants. Peak amplitudes were measured at the absolute maximum of the currents, taking into account the noise of the baseline and noise around the peak. Rise times were measured as the time elapsed from 20 to 80% of the peak amplitude of the response.
The action of nootropic drugs on the excitatory postsynaptic currents (EPSCs) elicited in CAl pyramidal neurons in hippocampal slices was investigated by stimulation of the Schaffer collateral afferents.

For assay [2], the system named is AMPA receptors located on CAl pyramidal neuronal membranes. As to the kind of experiment: Slow bath perfusion, whole-cell: potentiation of glutamate-elicited current (with MK-801) in CAl pyramidal neurons of hippocampal slices. On the procedure: as §1
(§3) Media and drug application. The external Ringer solution contained (in mM): NaCl 120; KCl 3.1; CaCl2 2; MgCl2 1; KH2 PO4 1; NaHCO3 26; glucose 2.7; and it was continuously bubbled with 95% O2 and 5% CO2. Patch pipettes were filled with a solution containing (in mM): K-gluconate 140; MgCl2 1; ATP.Mg 2; EGTA 0.5; HEPES-KOH 10, pH 7.2. All the drugs under investigation were applied through the recording chamber perfusion system via parallel inputs having a common entry into the chamber. Agonist application was attained using two different systems that allowed a slow or a rapid solution change. Slow solution changes were used during recordings in whole-cell configuration and were obtained by exchanging the solution of the recording chamber within a few seconds. Fast solution changes were obtained with the use of the Y-shaped tubing method that allows complete exchange of solution in less than 10 ms, and is described in detail by Murase et al. (1989).
IDRA compounds (see above for structures) were first dissolved in 50 μl of DMSO, then […] of 1N NaOH and water (sufficient to reach a volume of 1 ml and a concentration of 10 mM). The final concentration was reached diluting the stock solution with Ringer solution.
as §2
The action diazoxide and the IDRA analogues were tested on the desensitization of AMPA receptors located on CAl pyramidal neuronal membranes in rat hippocampal slices. In order to evaluate whether the compounds under study increase the intensity of currents generated by the activation of non-NMDA receptors, these receptors were activated with glutamate in the presence of 5 μM MK-801 to block completely the ionic current elicited by glutamate acting on the NMDA receptor channels present in CAl pyramidal neurons. Three distinct methods of drug application were employed: 1) slow bath perfusion of agonist and drugs while recording in whole-cell mode (onset 30s); ii) fast application to outside-out patches of a fixed concentration of agonist with a double barrel pipette (onset<1 ms) in the presence and the absence of drugs; iii) fast perfusion (onset<6 ms) of increasing concentrations of agonist and drugs applied with the Y-tubing device to outside-out patches excised from neurons in brain slices and to voltage-clamped neurons in primary culture.
. The most efficacious (1 mM) derivative was IDRA21, which elicited a potentiation of 797±220% (n=4 cells), followed by IDRA 20 with a potentiation of 292±100% (n=4 cells) (FIG. 2). […]

Assay [3] has as its system kainate-activated current. As to the kind of experiment: Selectivity: ionic current elicited by 20 μM kainate. The procedure: as §1, §3, §2

As to `CC1Nc2ccc(Cl)cc2S(=O)(=O)N1` (racemic) [IDRA 21, 7-chloro-3-methyl-3,4-dihydro-2H 1,2,4-benzothiadiazine S-S dioxide], the Emax at 1000 µM in assay [1] (Rattus norvegicus, Pyramidal neuron, read-out: efficacy in increasing delay time of AMPA current (EPSC) relative to diazoxide) came out at 300%. Also, the Emax in assay [1] (Rattus norvegicus, Pyramidal neuron, read-out: response relative to diazoxide (electrophysiology summary)) is 300%. Also, the “response relative to aniracetam (electrophysiology summary)” value in assay [1] (summary statement) is on record as “one order of magnitude larger than that of aniracetam”. Moreover, the “potentiation of glutamate-elicited current” value worked out at 65±6.9% in assay [2] (10 μM compound, mean±SE, N=4 cells); 109±30% in assay [2] (100 μM compound, mean±SE, N=4 cells); 797±200% in assay [2] (1 mM compound, 50 μM glutamate, 5 μM MK-801, whole-cell, slow perfusion); 797±220% in assay [2] (1 mM compound, 50 μM glutamate, 5 μM MK-801, whole-cell, slow perfusion, listed as IDRA21). Moreover, the “efficacy relative to diazoxide (potentiation of glutamate current)” value in assay [2] (1 mM) was found to be 4 fold. In addition, in assay [2] (1 mM, maximal dose testable without vehicle effect), the “maximal efficacy reached, in words” value is “failed to reach maximal efficacy at 1 mM”. Also, in assay [2] (up to 1 mM), the “potentiation of glutamate current, dose dependence” value is recorded as “dose-dependent potentiation”. Moreover, the “effect on kainate-activated current” value in assay [3] (1 mM compound, 20 μM kainate) was “failed to potentiate the kainate-activated current”. In addition, the “effect on kainate responses at doses that decreased AMPA desensitization” value in assay [3] (all doses that decrease/inhibit AMPA desensitization) is on record as “failed to affect kainate responses”.
